Laboratory results as given in patent US20080146626A1, “USE OF EPOTHILONES IN THE TREATMENT OF OSTEOPOROSIS AND RELATED DISEASES” (priority 2006, published 2008).
Several values for one entry are separate records, joined by “and”; a condition that tells them apart may be missing. Equal values may be shown once.

Assays:
[1] = system: human osteoclast precursor cells derived from bone marrow; test: osteoclast differentiation assay (medium TRACP 5b at day 7); assay type: cell-based
Procedure: The objective of this study is to investigate the effects of selected test compounds selected on resorbing activity of human osteoclasts in vitro. Bone resorption is studied using a model where human osteoclast precursor cells derived from bone marrow are cultured for 7 days on bovine bone slices and allowed to differentiate into bone-resorbing osteoclasts. […] In each test, a baseline group without test compounds is included to obtain a baseline value. […] The test system can also be modified by adding the test compounds at the beginning of the culture period to study if the test compounds affect osteoclast differentiation. Osteoprotegerin is used as a reference inhibitor of osteoclast differentiation in such cultures.
Appropriate dilutions were made from the stock solution to obtain the desired test concentrations (0.1 nM, 1 nM and 10 nM in osteoclast differentiation assay and 1 nM, 10 nM and 100 nM in osteoclast activity assay).

human osteoclasts [2] = test: osteoclast activity assay (bone resorption on bovine bone slices, CTX/TRACP 5b); assay type: cell-based; settings: for concentration of CTX released from bone collagen into the culture medium: resorption phase days 7-10
Procedure: The objective of this study is to investigate the effects of selected test compounds selected on resorbing activity of human osteoclasts in vitro. Bone resorption is studied using a model where human osteoclast precursor cells derived from bone marrow are cultured for 7 days on bovine bone slices and allowed to differentiate into bone-resorbing osteoclasts. At day 7, the culture medium is changed, the test compounds are added, and the formed mature osteoclasts are allowed to resorb bone in an additional 3-day culture period. Tartrate-resistant acid phosphatase isoform 5b activity (TRACP 5b) is measured from the culture medium collected at day 7 as an index of the number of osteoclasts formed in each well during the differentiation period. After the totally 10 days culture period, C-terminal cross-linked telopeptides of type I collagen (CTX) are quantitated from the culture medium as an index of bone resorption. The results are expressed as the resorption index (CTX at day 10/TRACP 5b at day 7), which describes the mean activity of a single osteoclast. In each test, a baseline group without test compounds is included to obtain a baseline value. […] The test system can also be modified by adding the test compounds at the beginning of the culture period to study if the test compounds affect osteoclast differentiation. Osteoprotegerin is used as a reference inhibitor of osteoclast differentiation in such cultures.
Used herein is a method where osteoclast precursor cells derived from human bone marrow are cultured on bovine bone slices. The cells are first allowed to differentiate into mature bone-resorbing osteoclasts, and the formed osteoclasts are then allowed to resorb bone. The system is ideally suitable for determining the effects of test compounds on bone resorption in vitro. Test compounds are added into the cell cultures after the differentiation period, and their effect on the resorbing activity of mature osteoclasts is determined.
(§1) The bone resorption assay is performed according to the above described Standard Operation Procedure. Shortly, human bone marrow-derived stem cells are suspended to culture medium and allowed to attach to bovine bone slices. The bone slices are transferred into 96-well tissue culture plates containing culture medium with appropriate amounts of important growth factors favoring osteoclast differentiation, including M-CSF, RANK-ligand and TGF-beta. The cells are incubated in a CO2 incubator in humidified atmosphere of 95% air and 5% carbon dioxide at 37° C. At day 7 when osteoclast differentiation is completed, the culture medium is replaced with culture medium containing conditions favoring osteoclast activity, and the test compounds are added. The cell culture is continued for an additional three days, during which the formed mature osteoclasts are allowed to resorb bone in the presence of vehicle, control inhibitor (E64) or test compounds at different concentrations. Tartrate-resistant acid phosphatase isoform 5b activity (TRACP 5b) is measured from the culture medium collected at day 7 using the BoneTRAP® assay (SBA-Sciences, Oulu, Finland). Medium TRACP 5b activity describes the number of osteoclasts formed in each well during the differentiation period. At the end of the culture period, C-terminal cross-linked telopeptides of type I collagen (CTX) released from the bone slices are quantitated as an index of bone resorption using CrossLaps® for culture assay (Nordic Bioscience, Herlev, Denmark). The results are expressed as the resorption index (CTX at day 10/TRACP 5b at day 7), which describes the mean activity of a single osteoclast. When necessary, the ToxiLight® assay (Cambrex, East Rutherford, N.J., USA) is used to detect cytotoxic effects of test compounds.
Two separate experiments were performed in this study, an osteoclast differentiation assay and an osteoclast activity assay.

human osteoclasts [3] = test: cytotoxicity in human osteoclast activity assay (luminescence released from dying cells); settings: day 10; for Cytotoxicity, % compared with baseline group: baseline mean = 100%
Procedure: as §1
Two separate experiments were performed in this study, an osteoclast differentiation assay and an osteoclast activity assay. In the osteoclast differentiation assay, osteoclast precursor cells were cultured for 7 days in the presence of the test compound, and TRACP 5b released into the culture medium was determined at day 7 as an index of the number of osteoclasts formed. Cytotoxicity was determined by quantitating the amount of dying cells from the culture medium at day 2. In the osteoclast activity assay, the test compounds were added after osteoclast differentiation was completed at day 7, and the mature osteoclasts were cultured for an additional 3 days, allowing them to resorb bone. […] Medium CTX was measured at day 10 to quantitate bone resorption during days 7-10, and the results are expressed as the resorption index CTX at day 10/TRACP 5b at day 7, which describes the mean resorbing activity of a single osteoclast. Cytotoxicity was determined by quantitating the amount of dying cells from the culture medium at day 10.
The test compounds were added after osteoclast differentiation was completed at day 7, and the mature osteoclasts were cultured for an additional 3 days, allowing them to resorb bone. […] Medium CTX was measured at day 10 to quantitate bone resorption during days 7-10, and the results are expressed as the resorption index CTX at day 10/TRACP 5b at day 7, which describes the mean osteoclast activity. Cytotoxicity was determined by quantitating the amount of dying cells from the culture medium at day 10.

[4] = Homo sapiens, Osteoclast, read-out: Resorbing activity, % of activity compared with baseline group

Q: For `C=CC[C@H]1C(=O)C(C)(C)[C@@H](O)CC(=O)O[C@H](c2ccc3sc(C)nc3c2)C[C@@H]2O[C@]2(C)CCC[C@H](C)[C@@H]1O` [EPO-477, (1S,3S,7S,10R,11S,12S,16R)-7,11-dihydroxy-3-(2-methyl-benzothiazol-5-yl)-10-(prop-2-en-1-yl)-8,8,12,16-tetramethyl-4,17-dioxabicyclo[14.1.0]heptadecane-5,9-dione], which “medium TRACP 5b activity at day 7” value ([1]; 0.1 nM, Mean of 6 replicates, in U/L) is on record?
A: 18.24

Q: What about the “medium TRACP 5b activity at day 7” value ([1]; 0.1 nM, single replicate, in U/L) of the same compound?
A: 14.72 and 16.43 and 21.41 and 17.57 and 17.37 and 21.95

Q: What about the “medium TRACP 5b activity at day 7” value ([1]; 1 nM, Mean of 6 replicates, in U/L) of the same compound?
A: 8.27

Q: What about the “medium TRACP 5b activity at day 7” value ([1]; 1 nM, single replicate) of the same compound?
A: 9.20 (2×) and 8.25 and 7.59 and 7.52 and 7.84

Q: And the “medium TRACP 5b activity at day 7” value ([1]; 10 nM, Mean of 6 replicates, in U/L)?
A: 2.45

Q: What about the “medium TRACP 5b activity at day 7” value ([1]; 10 nM, single replicate, in U/L) of the same compound?
A: 2.88 and 3.02 and 2.34 and 2.15 and 1.93 and 2.41

Q: And the “resorption index CTX at day 10/TRACP 5b at day 7” value (“resorption index CTX” below) (human osteoclasts [2]; 1 nM, Mean of 6 replicates)?
A: 3.31

Q: And the “concentration of CTX released from bone collagen into the culture medium” value (“concentration of CTX released” for short) (human osteoclasts [2]; 1 nM, Mean of 6 replicates)?
A: 60.34 nM

Q: And the “concentration of CTX released” value (human osteoclasts [2]; 1 nM, single replicate)?
A: 56.56 nM and 68.03 nM and 54.94 nM and 58.62 nM and 61.84 nM and 62.04 nM

Q: And the “resorption index CTX” value (human osteoclasts [2]; 1 nM, single replicate)?
A: 3.32 and 4.36 and 3.20 and 2.98 and 3.09 and 2.90

Q: And the “resorption index CTX” value (human osteoclasts [2]; 10 nM, Mean of 6 replicates)?
A: 1.14

Q: And the “concentration of CTX released” value (human osteoclasts [2]; 10 nM, Mean of 6 replicates)?
A: 20.16 nM

Q: What about the “concentration of CTX released” value (human osteoclasts [2]; 10 nM, single replicate) of the same compound?
A: 10.31 nM and 31.82 nM and 15.76 nM and 16.61 nM and 29.41 nM and 17.07 nM

Q: And the “resorption index CTX” value (human osteoclasts [2]; 10 nM, single replicate)?
A: 0.79 and 1.45 and 0.84 and 1.00 and 1.93 and 0.82

Q: What about the “resorption index CTX” value (human osteoclasts [2]; 100 nM, Mean of 6 replicates) of the same compound?
A: 0.78

Q: What about the “concentration of CTX released” value (human osteoclasts [2]; 100 nM, Mean of 6 replicates) of the same compound?
A: 13.45 nM

Q: What about the “concentration of CTX released” value (human osteoclasts [2]; 100 nM, single replicate) of the same compound?
A: 15.63 nM and 14.51 nM and 11.55 nM and 16.48 nM and 6.70 nM and 15.83 nM

Q: And the “resorption index CTX” value (human osteoclasts [2]; 100 nM, single replicate)?
A: 0.87 and 0.92 and 0.56 and 0.89 and 0.36 and 1.07

Q: What about the activity at 0.0025 µM (human osteoclasts [2]; [4]) of the same compound?
A: 95%

Q: And the activity at 0.005 µM (human osteoclasts [2]; [4])?
A: 103%

Q: What about the activity at 0.0075 µM (human osteoclasts [2]; [4]) of the same compound?
A: 109%

Q: What about the activity at 0.01 µM (human osteoclasts [2]; [4]) of the same compound?
A: 79%

Q: What about the activity at 0.015 µM (human osteoclasts [2]; [4]) of the same compound?
A: 45%

Q: What about the activity at 0.02 µM (human osteoclasts [2]; [4]) of the same compound?
A: 62%

Q: What about the activity at 0.05 µM (human osteoclasts [2]; [4]) of the same compound?
A: 38%

Q: What about the “luminescence released from dying cells during the culture period” value (“luminescence released” below) (human osteoclasts [3]; 1 nM, Mean of 6 replicates) of the same compound?
A: 1864

Q: What about the “luminescence released” value (human osteoclasts [3]; 1 nM, single replicate) of the same compound?
A: 2371 and 1802 and 1966 and 1781 and 1685 and 1577

Q: And the “Cytotoxicity, % compared with baseline group” value (shortened to “Cytotoxicity, %”) (human osteoclasts [3]; 2.5 nM)?
A: 98%

Q: What about the “Cytotoxicity, %” value (human osteoclasts [3]; 5 nM) of the same compound?
A: 96%

Q: What about the “Cytotoxicity, %” value (human osteoclasts [3]; 7.5 nM) of the same compound?
A: 91%

Q: What about the “luminescence released” value (human osteoclasts [3]; 10 nM, Mean of 6 replicates) of the same compound?
A: 1957

Q: And the “Cytotoxicity, %” value (human osteoclasts [3]; 10 nM)?
A: 96%

Q: What about the “luminescence released” value (human osteoclasts [3]; 10 nM, single replicate) of the same compound?
A: 2193 and 2097 and 2126 and 1815 and 1909 and 1599

Q: And the “Cytotoxicity, %” value (human osteoclasts [3]; 15 nM)?
A: 79%

Q: What about the “Cytotoxicity, %” value (human osteoclasts [3]; 20 nM) of the same compound?
A: 78%

Q: And the “Cytotoxicity, %” value (human osteoclasts [3]; 50 nM)?
A: 85%

Q: What about the “luminescence released” value (human osteoclasts [3]; 100 nM, Mean of 6 replicates) of the same compound?
A: 2666

Q: And the “luminescence released” value (human osteoclasts [3]; 100 nM, single replicate)?
A: 2837 and 2911 and 2428 and 2741 and 2112 and 2964
